Assay results as given in ChEMBL document CHEMBL1201862, “PubChem BioAssay data set” (2004).
Active and inactive are the calls of the source.

Legend:
[1] = target: Signal transducer and activator of transcription 3 (Homo sapiens, UniProt P40763); assay: STAT3 inhibitors, late-stage profile, late-stage follow-up, cell-based, STAT1 panel, qPCR, cytotoxicity, panel member STAT3 Inhibition (AID 2078)
[2] = target: Signal transducer and activator of transcription 1-alpha/beta (Homo sapiens, UniProt P42224); assay: STAT3 inhibitors, late-stage profile, late-stage follow-up, cell-based, STAT1 panel, qPCR, cytotoxicity, panel member STAT1 Inhibition (AID 2078)
Sequence of Signal transducer and activator of transcription 1-alpha/beta (P42224 whole entry): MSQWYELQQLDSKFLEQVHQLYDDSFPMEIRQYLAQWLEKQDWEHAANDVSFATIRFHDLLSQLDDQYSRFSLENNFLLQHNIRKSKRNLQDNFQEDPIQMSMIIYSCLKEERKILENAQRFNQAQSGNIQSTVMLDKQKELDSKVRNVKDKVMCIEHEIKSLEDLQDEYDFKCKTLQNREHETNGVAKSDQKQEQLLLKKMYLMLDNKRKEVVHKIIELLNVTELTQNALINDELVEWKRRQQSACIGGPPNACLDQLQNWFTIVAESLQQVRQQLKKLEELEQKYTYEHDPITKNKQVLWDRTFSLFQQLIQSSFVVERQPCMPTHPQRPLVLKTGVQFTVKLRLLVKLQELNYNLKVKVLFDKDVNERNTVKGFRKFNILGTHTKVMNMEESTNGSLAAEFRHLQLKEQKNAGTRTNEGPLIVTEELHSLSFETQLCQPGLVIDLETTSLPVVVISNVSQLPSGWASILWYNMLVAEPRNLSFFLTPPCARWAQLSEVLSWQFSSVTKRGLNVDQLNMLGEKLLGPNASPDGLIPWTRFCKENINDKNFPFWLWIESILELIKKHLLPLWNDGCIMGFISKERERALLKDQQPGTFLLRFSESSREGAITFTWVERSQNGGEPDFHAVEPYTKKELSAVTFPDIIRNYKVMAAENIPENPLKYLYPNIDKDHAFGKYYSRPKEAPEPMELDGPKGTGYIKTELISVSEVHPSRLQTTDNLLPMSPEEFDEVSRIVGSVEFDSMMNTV

Mucolipin-3 = target: T1, Mucolipin-3 (Homo sapiens, UniProt Q8TDD5); assay: Fluorescence counterscreen assay for […] agonists: dose response cell-based high-throughput screening assay to identify agonists of the transient receptor potential channel ML3 (TRPML3). [Related pubchem assays: 1424, 1448 ]; assay type: functional
T1 sequence (Q8TDD5 whole entry): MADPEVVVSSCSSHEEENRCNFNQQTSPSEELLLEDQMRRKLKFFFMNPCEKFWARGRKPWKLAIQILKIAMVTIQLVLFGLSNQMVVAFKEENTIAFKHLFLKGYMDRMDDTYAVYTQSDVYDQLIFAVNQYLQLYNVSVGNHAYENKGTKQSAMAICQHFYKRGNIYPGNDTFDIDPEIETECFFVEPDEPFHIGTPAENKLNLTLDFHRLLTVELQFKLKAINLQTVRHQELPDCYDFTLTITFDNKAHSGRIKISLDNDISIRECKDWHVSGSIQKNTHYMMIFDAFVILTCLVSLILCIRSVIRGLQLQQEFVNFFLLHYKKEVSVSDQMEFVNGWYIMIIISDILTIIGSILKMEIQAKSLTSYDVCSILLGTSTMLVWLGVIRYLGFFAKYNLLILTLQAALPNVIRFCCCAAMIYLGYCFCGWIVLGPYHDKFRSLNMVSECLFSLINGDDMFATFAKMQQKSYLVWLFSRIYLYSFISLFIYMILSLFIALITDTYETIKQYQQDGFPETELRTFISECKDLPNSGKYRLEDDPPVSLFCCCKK

Ion channel NompC = Ion channel NompC (Danio rerio, UniProt Q7T1G6); assay: Dose response cell-based high-throughput screening assay for agonists of the transient receptor potential channel N1 (TRPN1). [Related pubchem assays (depositor defined):AID1424, AID1448]; assay type: functional
[3] = target: T2, Ubiquitin-conjugating enzyme E2 N (Homo sapiens, UniProt P61088); assay type: functional
T2 sequence (P61088 whole entry): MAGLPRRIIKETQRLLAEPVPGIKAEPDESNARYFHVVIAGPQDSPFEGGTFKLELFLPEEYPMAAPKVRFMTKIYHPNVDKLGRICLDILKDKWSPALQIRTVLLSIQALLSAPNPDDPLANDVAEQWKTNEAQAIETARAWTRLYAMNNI

[4] = target: T2, Ubiquitin-conjugating enzyme E2 N; assay type: functional; remark: listed apart in the source
[5] = target: T3, Short transient receptor potential channel 4 (Mus musculus, UniProt Q9QUQ5); assay: mouse TRPC4 channel activators, dose response, cell-based, HEK293 TRPC4/mu-opioid, Fluo-4 calcium (AID 434937); assay type: functional
T3 sequence (Q9QUQ5 whole entry): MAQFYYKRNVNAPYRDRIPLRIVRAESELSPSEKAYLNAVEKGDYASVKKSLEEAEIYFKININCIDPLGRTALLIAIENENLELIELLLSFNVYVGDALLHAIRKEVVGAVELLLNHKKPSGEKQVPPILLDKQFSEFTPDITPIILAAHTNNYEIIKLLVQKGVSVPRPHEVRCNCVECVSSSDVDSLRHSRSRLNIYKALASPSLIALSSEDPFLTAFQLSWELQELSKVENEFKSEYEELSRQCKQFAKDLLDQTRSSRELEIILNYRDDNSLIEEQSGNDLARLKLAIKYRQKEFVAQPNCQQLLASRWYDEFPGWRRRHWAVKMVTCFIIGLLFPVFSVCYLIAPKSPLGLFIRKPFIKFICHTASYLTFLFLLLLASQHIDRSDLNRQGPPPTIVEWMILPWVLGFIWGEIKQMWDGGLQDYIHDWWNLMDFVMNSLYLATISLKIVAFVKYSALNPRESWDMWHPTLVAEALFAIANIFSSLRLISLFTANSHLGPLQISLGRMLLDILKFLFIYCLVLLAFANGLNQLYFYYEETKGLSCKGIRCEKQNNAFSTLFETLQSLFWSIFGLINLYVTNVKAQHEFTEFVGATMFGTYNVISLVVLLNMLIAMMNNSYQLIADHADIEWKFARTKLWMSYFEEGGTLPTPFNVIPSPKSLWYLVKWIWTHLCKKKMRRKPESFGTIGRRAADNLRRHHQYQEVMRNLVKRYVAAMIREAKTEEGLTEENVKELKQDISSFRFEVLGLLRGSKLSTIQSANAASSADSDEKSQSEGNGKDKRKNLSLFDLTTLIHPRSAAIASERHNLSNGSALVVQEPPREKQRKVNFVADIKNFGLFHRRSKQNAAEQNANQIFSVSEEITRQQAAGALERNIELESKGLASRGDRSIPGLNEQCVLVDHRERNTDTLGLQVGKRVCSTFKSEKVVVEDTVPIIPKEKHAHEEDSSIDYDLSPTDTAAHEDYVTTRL

Bcl-2-related protein A1 = target: T4, Bcl-2-related protein A1 (Mus musculus, UniProt Q07440); assay type: functional;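 further: confirmatory dose–response counterscreen on Bfl-1, used to check hits from a UBC13 polyubiquitin inhibitor campaign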
T4 sequence (Q07440 whole entry): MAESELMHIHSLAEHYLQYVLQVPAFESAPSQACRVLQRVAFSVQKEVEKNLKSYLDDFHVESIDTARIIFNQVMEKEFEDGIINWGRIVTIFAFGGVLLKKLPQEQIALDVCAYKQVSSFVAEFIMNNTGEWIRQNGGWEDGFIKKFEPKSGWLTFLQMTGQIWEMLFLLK

[6] = target: T5, E3 ubiquitin-protein ligase XIAP (Homo sapiens, UniProt P98170); assay: XIAP antagonists, biochemical, IAP family, fluorescence polarization (AID 1018); assay type: functional
T5 sequence (P98170 whole entry): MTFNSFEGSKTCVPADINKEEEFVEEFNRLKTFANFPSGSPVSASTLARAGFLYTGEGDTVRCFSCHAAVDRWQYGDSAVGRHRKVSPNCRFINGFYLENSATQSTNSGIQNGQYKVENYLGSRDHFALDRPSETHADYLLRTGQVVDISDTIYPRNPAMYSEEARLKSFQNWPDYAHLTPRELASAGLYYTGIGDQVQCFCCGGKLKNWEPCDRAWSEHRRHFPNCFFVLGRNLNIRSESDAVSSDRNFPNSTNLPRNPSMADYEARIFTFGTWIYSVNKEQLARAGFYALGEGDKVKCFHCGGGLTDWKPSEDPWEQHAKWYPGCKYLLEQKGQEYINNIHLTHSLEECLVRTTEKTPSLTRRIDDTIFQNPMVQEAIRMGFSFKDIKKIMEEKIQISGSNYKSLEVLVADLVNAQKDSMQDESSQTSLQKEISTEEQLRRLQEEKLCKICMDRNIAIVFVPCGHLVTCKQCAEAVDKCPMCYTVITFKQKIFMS

[7] = target: T5, E3 ubiquitin-protein ligase XIAP; assay: Counter Screen using XIAP-Bir3 for Chemical Antagonists of Bir1/2 domains of IAP-family anti-apoptotic proteins. [Related pubchem assays (depositor defined):AID1018, AID1449, AID1514, AID1638, AID1749, AID1750, AID488957, AID488963]
[8] = target: Sphingosine 1-phosphate receptor 3 (Homo sapiens, UniProt Q99500); assay: Late stage counterscreen assay for S1P4 antagonists: Fluorescence dose response cell-based screening assay for antagonists of the Sphingosine 1-Phosphate Receptor 3 (S1P3). [Related pubchem assays (depositor defined):AID1510, AID1524, AID1692, AID1853, AID2332, AID489009, AID489017]; assay type: functional
Sequence of Sphingosine 1-phosphate receptor 3 (Q99500 whole entry): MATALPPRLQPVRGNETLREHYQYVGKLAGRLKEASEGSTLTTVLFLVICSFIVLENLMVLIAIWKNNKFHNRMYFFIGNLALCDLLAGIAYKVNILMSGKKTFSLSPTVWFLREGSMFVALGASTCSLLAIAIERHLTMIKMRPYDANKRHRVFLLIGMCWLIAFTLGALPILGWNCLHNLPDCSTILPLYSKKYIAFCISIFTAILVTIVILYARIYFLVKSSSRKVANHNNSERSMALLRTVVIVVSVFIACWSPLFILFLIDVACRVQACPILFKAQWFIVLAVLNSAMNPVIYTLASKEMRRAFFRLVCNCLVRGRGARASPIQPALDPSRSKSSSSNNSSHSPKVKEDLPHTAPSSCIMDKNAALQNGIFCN

[9] = target: Sphingosine 1-phosphate receptor 5 (Homo sapiens, UniProt Q9H228); assay: Late stage counterscreen assay for S1P4 antagonists: Fluorescence dose response cell-based screening assay for antagonists of the Sphingosine 1-Phosphate Receptor 5 (S1P5). [Related pubchem assays (depositor defined):AID1510, AID1524, AID1692, AID1853, AID2332, AID489009, AID489017]; assay type: functional
Sequence of Sphingosine 1-phosphate receptor 5 (Q9H228 whole entry): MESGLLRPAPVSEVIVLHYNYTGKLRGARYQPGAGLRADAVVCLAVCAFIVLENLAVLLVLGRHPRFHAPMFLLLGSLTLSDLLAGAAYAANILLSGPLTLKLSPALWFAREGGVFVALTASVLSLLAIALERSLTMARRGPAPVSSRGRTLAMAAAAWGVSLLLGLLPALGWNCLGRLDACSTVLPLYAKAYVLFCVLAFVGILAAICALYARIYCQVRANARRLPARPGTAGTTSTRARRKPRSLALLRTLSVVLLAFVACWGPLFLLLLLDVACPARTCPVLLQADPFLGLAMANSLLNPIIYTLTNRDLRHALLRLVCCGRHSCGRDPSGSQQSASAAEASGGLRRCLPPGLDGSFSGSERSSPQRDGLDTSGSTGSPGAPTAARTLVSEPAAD

[10] = target: Sphingosine 1-phosphate receptor 2 (Homo sapiens, UniProt O95136); assay: Late stage counterscreen assay for S1P4 antagonists: Fluorescence dose response cell-based screening assay for antagonists of the Sphingosine 1-Phosphate Receptor 2 (S1P2). [Related pubchem assays (depositor defined):AID1510, AID1524, AID1692, AID1853, AID2332, AID489009, AID489017]; assay type: functional
Sequence of Sphingosine 1-phosphate receptor 2 (O95136 whole entry): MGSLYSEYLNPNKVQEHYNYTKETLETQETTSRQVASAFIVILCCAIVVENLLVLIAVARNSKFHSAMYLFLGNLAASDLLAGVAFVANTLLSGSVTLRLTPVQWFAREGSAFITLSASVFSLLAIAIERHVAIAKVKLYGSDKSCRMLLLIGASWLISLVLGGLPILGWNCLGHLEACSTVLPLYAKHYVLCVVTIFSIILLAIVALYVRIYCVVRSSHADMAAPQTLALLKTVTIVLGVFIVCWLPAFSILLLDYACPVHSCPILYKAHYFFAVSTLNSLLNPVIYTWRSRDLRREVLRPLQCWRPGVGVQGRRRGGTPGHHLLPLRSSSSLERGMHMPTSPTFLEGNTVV

[11] = target: Voltage-dependent T-type calcium channel subunit alpha-1H (Homo sapiens, UniProt O95180); assay type: functional;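 further: channel activity triggered by adding a high calcium stimulation buffer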
[12] = target: Sphingosine 1-phosphate receptor 1 (Homo sapiens, UniProt P21453); assay: Late stage counterscreen assay for S1P4 antagonists: Fluorescence dose response cell-based screening assay for antagonists of the Sphingosine 1-Phosphate Receptor 1 (S1P1). [Related pubchem assays (depositor defined):AID1510, AID1524, AID1692, AID1853, AID2332, AID489009, AID489017]; assay type: functional
Sequence of Sphingosine 1-phosphate receptor 1 (P21453 whole entry): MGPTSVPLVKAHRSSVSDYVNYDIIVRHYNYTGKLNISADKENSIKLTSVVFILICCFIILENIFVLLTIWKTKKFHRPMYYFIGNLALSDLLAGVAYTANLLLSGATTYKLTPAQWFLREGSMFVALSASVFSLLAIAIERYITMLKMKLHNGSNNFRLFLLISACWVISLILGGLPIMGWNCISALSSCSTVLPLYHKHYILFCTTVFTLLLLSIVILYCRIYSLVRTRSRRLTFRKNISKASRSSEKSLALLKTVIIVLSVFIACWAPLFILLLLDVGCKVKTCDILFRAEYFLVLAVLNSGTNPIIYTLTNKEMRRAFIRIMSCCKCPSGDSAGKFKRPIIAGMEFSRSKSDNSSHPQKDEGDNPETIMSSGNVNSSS

Sequence of Signal transducer and activator of transcription 3 (P40763 whole entry): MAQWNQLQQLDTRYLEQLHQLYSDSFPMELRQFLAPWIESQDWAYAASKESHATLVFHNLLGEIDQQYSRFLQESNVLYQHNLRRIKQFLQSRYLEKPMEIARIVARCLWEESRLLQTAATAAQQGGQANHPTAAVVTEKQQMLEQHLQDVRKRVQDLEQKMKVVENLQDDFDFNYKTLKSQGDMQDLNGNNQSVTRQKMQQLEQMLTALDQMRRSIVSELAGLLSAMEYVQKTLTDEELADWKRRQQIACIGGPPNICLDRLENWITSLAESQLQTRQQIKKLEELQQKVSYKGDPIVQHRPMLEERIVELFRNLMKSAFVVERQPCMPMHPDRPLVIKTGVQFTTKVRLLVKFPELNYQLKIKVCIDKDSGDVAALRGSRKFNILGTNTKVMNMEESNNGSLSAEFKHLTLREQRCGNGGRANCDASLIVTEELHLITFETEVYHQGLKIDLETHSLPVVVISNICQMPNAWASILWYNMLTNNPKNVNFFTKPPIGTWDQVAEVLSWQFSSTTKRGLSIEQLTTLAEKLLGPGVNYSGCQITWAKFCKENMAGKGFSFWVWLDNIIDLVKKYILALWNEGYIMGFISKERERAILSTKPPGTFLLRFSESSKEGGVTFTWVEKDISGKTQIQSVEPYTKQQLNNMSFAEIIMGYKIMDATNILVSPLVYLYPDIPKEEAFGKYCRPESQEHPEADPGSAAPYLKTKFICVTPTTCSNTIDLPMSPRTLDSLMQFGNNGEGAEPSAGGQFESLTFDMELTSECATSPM

In the case of c1ccc(CC2CCN(c3ncnc4scc(-c5ccccc5)c34)CC2)cc1, the IC50 [1] is reported as > 55.7 µM (inactive) and the IC50 [2] is reported as > 55.7 µM (inactive).
In the case of COc1cc(OC)c(C(=O)NC2CCCCCC2)cc1OC, the EC50 (Mucolipin-3) is reported as > 29.9 µM (not active) and the EC50 (Ion channel NompC) is reported as > 29.9 µM (inactive).
For NCCCn1c(C(=O)c2cc(Cl)c(N)c(Cl)c2)c2ccccc2[n+]1[O-], the IC50 [3] was 12.9 µM (active), the IC50 [4] was 5.33 µM (active) and the EC50 [5] was 1.88 µM (active). For the same molecule, the IC50 (Bcl-2-related protein A1) was > 20 µM (inactive).
For CCN(Cc1ccccc1)C(=O)/C=C/c1ccccc1[N+](=O)[O-], the IC50 [6] was > 100 µM (not active) and the IC50 [7] was > 100 µM (inactive).
For Cc1cccc(C)c1NC(=O)c1ccc(-c2ccc(Cl)cc2Cl)o1, the IC50 [8] was 25.4 µM (inactive), the IC50 [9] was 9.62 µM (active) and the IC50 [10] was 14.2 µM (inactive). The EC50 [11] was 5.94 µM (active) and the IC50 [12] was > 25 µM (inactive).
